The values below come from patent publication US10030020B2, “Spirocycle compounds and methods of making and using same” (Abide Therapeutics, Inc., priority 2016, dated 2018).

The structures appear in SMILES notation. Read-outs that look alike come from different tables or passages of the source. A value given as a limit tells only on which side of the number the result lay.

What all share (format): biochemical
In one test the target is MAGL (Mus musculus (Mouse), UniProt O35678). As to the kind of experiment: In vitro competitive activity-based protein profiling (mouse brain membrane fraction or cell lysates), MAGL band. The following applies: mouse proteome; for inhibition at 1 µM: read-out: MAGL % Inh 1 μM (mouse); for IC50: competitive ABPP. The procedure:
(§1) In Vitro Competitive Activity-Based Protein Profiling.
Proteomes (mouse brain membrane fraction or cell lysates) (50 μL, 1.0 mg/mL total protein concentration) were preincubated with varying concentrations of inhibitors at 37° C. After 30 min, FP—Rh (1.0 μL, 50 μM in DMSO) was added and the mixture was incubated for another 30 min at 37° C. Reactions were quenched with SDS loading buffer (50 μL-4×) and run on SDS-PAGE.

Another test has as its target ABHD6 (Mus musculus (Mouse), UniProt Q8R2Y0). As to the kind of experiment: In vitro competitive activity-based protein profiling (mouse brain membrane fraction or cell lysates), ABHD6 band. As to conditions: for inhibition at 1 µM: read-out: ABHD6 % Inh 1 μM (mouse); for IC50: competitive ABPP. The procedure:
as §1
(§2) Proteomes (mouse brain membrane fraction or cell lysates) (50 μL, 1.0 mg/mL total protein concentration) were preincubated with varying concentrations of inhibitors at 37° C. After 30 min, FP—Rh (1.0 μL, 50 μM in DMSO) was added and the mixture was incubated for another 30 min at 37° C. Reactions were quenched with SDS loading buffer (50 μL-4×) and run on SDS-PAGE. Following gel imaging, serine hydrolase activity was determined by measuring fluorescent intensity of gel bands corresponding to MAGL, ABHD6 and FAAH using ImageJ 1.43u software.

In a further test the target is FAAH (Mus musculus (Mouse), UniProt O08914). As to the kind of experiment: In vitro competitive activity-based protein profiling (mouse brain membrane fraction or cell lysates), FAAH band. The following applies: for inhibition at 1 µM: read-out: FAAH % Inh 1 μM (mouse); for IC50: competitive ABPP. The procedure:
as §1, §2

Chain of MAGL (O35678 whole entry): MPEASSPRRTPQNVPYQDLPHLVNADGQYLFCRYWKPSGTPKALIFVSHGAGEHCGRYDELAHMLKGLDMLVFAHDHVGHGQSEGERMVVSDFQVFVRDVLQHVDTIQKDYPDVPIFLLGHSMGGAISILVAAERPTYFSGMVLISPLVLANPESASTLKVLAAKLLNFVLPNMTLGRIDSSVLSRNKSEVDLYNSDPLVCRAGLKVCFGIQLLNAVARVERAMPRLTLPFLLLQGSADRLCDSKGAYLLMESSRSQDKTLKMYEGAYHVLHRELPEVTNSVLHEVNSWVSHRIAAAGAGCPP
Chain of FAAH (O08914 whole entry): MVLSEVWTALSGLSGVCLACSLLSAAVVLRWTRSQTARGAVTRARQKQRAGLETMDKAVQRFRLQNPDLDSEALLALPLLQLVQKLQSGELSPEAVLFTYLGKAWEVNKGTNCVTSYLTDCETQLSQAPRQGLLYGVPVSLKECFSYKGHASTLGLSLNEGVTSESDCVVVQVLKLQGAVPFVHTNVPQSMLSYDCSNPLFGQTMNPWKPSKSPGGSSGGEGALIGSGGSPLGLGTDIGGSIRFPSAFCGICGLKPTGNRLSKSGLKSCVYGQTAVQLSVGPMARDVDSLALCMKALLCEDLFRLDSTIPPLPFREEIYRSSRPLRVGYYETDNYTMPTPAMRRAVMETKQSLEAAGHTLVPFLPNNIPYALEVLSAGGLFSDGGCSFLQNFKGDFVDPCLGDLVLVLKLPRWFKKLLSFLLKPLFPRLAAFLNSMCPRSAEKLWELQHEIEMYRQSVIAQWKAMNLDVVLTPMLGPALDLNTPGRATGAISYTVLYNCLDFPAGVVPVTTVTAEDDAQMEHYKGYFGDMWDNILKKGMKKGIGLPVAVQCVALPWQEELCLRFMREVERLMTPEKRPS
Chain of ABHD6 (Q8R2Y0 whole entry): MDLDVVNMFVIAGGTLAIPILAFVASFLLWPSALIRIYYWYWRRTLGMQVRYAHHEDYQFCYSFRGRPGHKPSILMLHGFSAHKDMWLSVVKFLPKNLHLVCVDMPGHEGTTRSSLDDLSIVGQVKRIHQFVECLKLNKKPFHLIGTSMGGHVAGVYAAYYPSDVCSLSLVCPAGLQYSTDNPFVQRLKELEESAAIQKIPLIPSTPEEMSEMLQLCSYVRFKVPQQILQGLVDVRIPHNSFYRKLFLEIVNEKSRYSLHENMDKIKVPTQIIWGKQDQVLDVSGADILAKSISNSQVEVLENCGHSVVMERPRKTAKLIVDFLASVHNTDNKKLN

With `COc1ccc(CN2CCCC23CCN(C(=O)OC(C(F)(F)F)C(F)(F)F)CC3)cc1` [Example 1, 1,1,1,3,3,3-Hexafluoropropan-2-yl 1-(4-methoxybenzyl)-1,8-diazaspiro[4.5]decane-8-carboxylate], the inhibition at 1 µM was above 75% on MAGL, below 25% on ABHD6 (mouse proteome) and below 25% at FAAH (mouse proteome). Moreover, the IC50 on ABHD6 (mouse proteome) and on FAAH (mouse proteome) was above 1 µM throughout.

As to `COc1cccc(CN2CCCC23CCN(C(=O)OC(C(F)(F)F)C(F)(F)F)CC3)c1` [Example 2, 1,1,1,3,3,3-Hexafluoropropan-2-yl 1-(3-methoxybenzyl)-1,8-diazaspiro[4.5]decane-8-carboxylate], the inhibition at 1 µM on MAGL was above 75%; on ABHD6 (mouse proteome), below 25%; on FAAH (mouse proteome) it was below 25%. Also, the IC50 – broadly, the midpoint of a concentration-inhibition curve – at MAGL is 0.1 to 1 µM; on ABHD6 (mouse proteome) it was above 1 µM; at FAAH (mouse proteome), above 1 µM.

For `COc1ccccc1CN1CCCC12CCN(C(=O)OC(C(F)(F)F)C(F)(F)F)CC2` [Example 3, 1,1,1,3,3,3-Hexafluoropropan-2-yl 1-(2-methoxybenzyl)-1,8-diazaspiro[4.5]decane-8-carboxylate], the values for the inhibition at 1 µM on MAGL, at ABHD6 (mouse proteome) and on FAAH (mouse proteome) were above 75%, below 25% and below 25%, respectively. Also, the figures for the half-inhibitory concentration (IC50) at MAGL, at ABHD6 (mouse proteome) and on FAAH (mouse proteome) were 0.1 to 1 µM, above 1 µM and above 1 µM, respectively.

Regarding `CCOc1ccccc1CN1CCCC12CCN(C(=O)OC(C(F)(F)F)C(F)(F)F)CC2` [Example 6, 1,1,1,3,3,3-Hexafluoropropan-2-yl 1-(2-ethoxybenzyl)-1,8-diazaspiro[4.5]decane-8-carboxylate], the IC50 on MAGL is 0.1 to 1 µM; on ABHD6 (mouse proteome), above 1 µM; at FAAH (mouse proteome), above 1 µM.

As to `O=C(OC(C(F)(F)F)C(F)(F)F)N1CCC2(CCCN2Cc2cccc(OCCN3CCCCC3)c2)CC1` [Example 11, 1,1,1,3,3,3-Hexafluoropropan-2-yl 1-(3-(2-(piperidin-1-yl)ethoxy)benzyl)-1,8-diazaspiro[4.5]decane-8-carboxylate], the values for the inhibition at 1 µM on MAGL, on ABHD6 (mouse proteome) and at FAAH (mouse proteome) were above 75%, below 25% and below 25%, respectively. Moreover, the IC50 was 0.1 to 1 µM on MAGL, above 1 µM on ABHD6 (mouse proteome) and above 1 µM on FAAH (mouse proteome).

With `O=C(OC(C(F)(F)F)C(F)(F)F)N1CCC2(CCCN2Cc2cccc(OCCN3CCCC3)c2)CC1` [Example 12, 1,1,1,3,3,3-Hexafluoropropan-2-yl 1-(3-(2-(pyrrolidin-1-yl)ethoxy)benzyl)-1,8-diazaspiro[4.5]decane-8-carboxylate], the inhibition at 1 µM at MAGL is above 75%; on ABHD6 (mouse proteome), below 25%; on FAAH (mouse proteome), below 25%. Also, the IC50 on MAGL was 0.1 to 1 µM; on ABHD6 (mouse proteome), above 1 µM; at FAAH (mouse proteome) it was above 1 µM.

Regarding `O=C(OC(C(F)(F)F)C(F)(F)F)N1CCC2(CCCN2Cc2cccc(OCCN3CCOCC3)c2)CC1` [Example 13, 1,1,1,3,3,3-Hexafluoropropan-2-yl 1-(3-(2-morpholinoethoxy)benzyl)-1,8-diazaspiro[4.5]decane-8-carboxylate], the inhibition at 1 µM on MAGL was above 75%; at ABHD6 (mouse proteome), below 25%; at FAAH (mouse proteome), below 25%. Further, the figures for the concentration for half-maximal inhibition (IC50) on MAGL, on ABHD6 (mouse proteome) and on FAAH (mouse proteome) were 0.1 to 1 µM, above 1 µM and above 1 µM, respectively.

On to `O=C(OC(C(F)(F)F)C(F)(F)F)N1CCC2(CCCN2Cc2ccc(OCCN3CCOCC3)cc2)CC1` [Example 14, 1,1,1,3,3,3-Hexafluoropropan-2-yl 1-(4-(2-morpholinoethoxy)benzyl)-1,8-diazaspiro[4.5]decane-8-carboxylate], for which the figures for the inhibition at 1 µM on MAGL, on ABHD6 (mouse proteome) and on FAAH (mouse proteome) were above 75%, below 25% and below 25%, respectively.

On to `O=C(OC(C(F)(F)F)C(F)(F)F)N1CCC2(CCCN2Cc2ccc(OCCN3CCCCC3)c(Cl)c2)CC1` [Example 15, 1,1,1,3,3,3-Hexafluoropropan-2-yl 1-(3-chloro-4-(2-(piperidin-1-yl)ethoxy)benzyl)-1,8-diazaspiro[4.5]decane-8-carboxylate], for which the results for the inhibition at 1 µM at MAGL, on ABHD6 (mouse proteome) and at FAAH (mouse proteome) were above 75%, below 25% and below 25%, respectively. Also, the figures for the IC50 at MAGL, on ABHD6 (mouse proteome) and on FAAH (mouse proteome) were 0.1 to 1 µM, above 1 µM and above 1 µM, respectively.

Take `O=C(OC(C(F)(F)F)C(F)(F)F)N1CCC2(CCCN2Cc2cc(Cl)cc(N3CC4COCC4C3)c2)CC1` (stereo not drawn) [Example 38, 1,1,1,3,3,3-Hexafluoropropan-2-yl 1-(3-chloro-5-(tetrahydro-1H-furo[3,4-c]pyrrol-5(3H)-yl)benzyl)-1,8-diazaspiro[4.5]decane-8-carboxylate]: the inhibition at 1 µM was above 75% at MAGL, below 25% at ABHD6 (mouse proteome) and 25 to 75% at FAAH (mouse proteome). Moreover, the IC50 at MAGL is below 0.1 µM; on ABHD6 (mouse proteome), above 1 µM; at FAAH (mouse proteome), above 1 µM.

Consider `O=C(OC(C(F)(F)F)C(F)(F)F)N1CCC2(CCCN2Cc2cc(Cl)cc(N3CCC(F)CC3)c2)CC1` [Example 39, 1,1,1,3,3,3-Hexafluoropropan-2-yl 1-(3-chloro-5-(4-fluoropiperidin-1-yl)benzyl)-1,8-diazaspiro[4.5]decane-8-carboxylate], for which the inhibition at 1 µM was above 75% at MAGL, below 25% at ABHD6 (mouse proteome) and below 25% at FAAH (mouse proteome). Also, the results for the IC50 at MAGL, at ABHD6 (mouse proteome) and at FAAH (mouse proteome) were below 0.1 µM, above 1 µM and above 1 µM, respectively.

As for `CS(=O)(=O)N1CCN(c2cc(Cl)cc(CN3CCCC34CCN(C(=O)OC(C(F)(F)F)C(F)(F)F)CC4)c2)CC1` [Example 40, 1,1,1,3,3,3-Hexafluoropropan-2-yl 1-(3-chloro-5-(4-(methylsulfonyl)piperazin-1-yl)benzyl)-1,8-diazaspiro[4.5]decane-8-carboxylate], the figures for the inhibition at 1 µM on MAGL, at ABHD6 (mouse proteome) and at FAAH (mouse proteome) were above 75%, below 25% and below 25%, respectively. The IC50 is below 0.1 µM on MAGL, above 1 µM at ABHD6 (mouse proteome) and above 1 µM at FAAH (mouse proteome).

For the molecule `O=C(OC(C(F)(F)F)C(F)(F)F)N1CCC2(CCCN2Cc2cc(N3CCC(C(F)(F)F)CC3)cc(C(F)(F)F)c2)CC1` [Example 44, 1,1,1,3,3,3-Hexafluoropropan-2-yl 1-(3-(trifluoromethyl)-5-(4-(trifluoromethyl)piperidin-1-yl)benzyl)-1,8-diazaspiro[4.5]decane-8-carboxylate], the IC50 on ABHD6 (mouse proteome) and at FAAH (mouse proteome) was above 1 µM each time.

With `O=C(O)C1CCN(c2cc(Cl)ccc2CN2CCC3(CCN(C(=O)OC(C(F)(F)F)C(F)(F)F)CC3)C2)CC1` [Example 118, 1-(5-chloro-2-((8-(((1,1,1,3,3,3-hexafluoropropan-2-yl)oxy)carbonyl)-2,8-diazaspiro[4.5]decan-2-yl)methyl)phenyl)piperidine-4-carboxylic acid], at ABHD6 (mouse proteome), the inhibition at 1 µM was below 25% and the IC50 was above 1 µM. On FAAH (mouse proteome), the inhibition at 1 µM was below 25% and the IC50 was above 1 µM.

Take `O=C(O)c1ccc(CN2CCCC23CCN(C(=O)OC(C(F)(F)F)C(F)(F)F)CC3)cc1C(F)(F)F` [Example 182, 4-((8-((1,1,1,3,3,3-Hexafluoropropan-2-yloxy)carbonyl)-1,8-diazaspiro[4.5]decan-1-yl)methyl)-2-(trifluoromethyl)benzoic acid]: the inhibition at 1 µM at ABHD6 (mouse proteome) and at FAAH (mouse proteome) was below 25% each time. For the same molecule, the IC50 on ABHD6 (mouse proteome) and at FAAH (mouse proteome) was above 1 µM in each case.

Turning to `O=C(O)C1CCN(c2cc(F)ccc2CN2CCC3(CCN(C(=O)OC(C(F)(F)F)C(F)(F)F)CC3)C2)CC1` [Example 237], the inhibition at 1 µM is 25 to 75% on ABHD6 (mouse) and below 25% at FAAH (mouse).

For `Cc1cc(CN2CCCC23CCN(C(=O)OC(C(F)(F)F)C(F)(F)F)CC3)cc(C(=O)O)c1` [Example 243], the inhibition at 1 µM at ABHD6 (mouse) and at FAAH (mouse) was below 25% each time.

As for `O=C(O)C1CCN(Cc2cc(CN3CCC4(CCN(C(=O)OC(C(F)(F)F)C(F)(F)F)CC4)C3)ccc2Cl)CC1` [Example 246], the inhibition at 1 µM at ABHD6 (mouse) was 25 to 75%; at FAAH (mouse), below 25%.

As to `O=C(O)c1cc(CN2CCC3(CCN(C(=O)OC(C(F)(F)F)C(F)(F)F)CC3)C2)ccc1C(F)(F)F` [Example 255], the inhibition at 1 µM at ABHD6 (mouse) was 25 to 75%; on FAAH (mouse) it was below 25%.

As for `CC1(C(=O)O)CN(c2cc(C(F)(F)F)ccc2CN2CCCC23CCN(C(=O)OC(C(F)(F)F)C(F)(F)F)CC3)CCO1` (stereo not drawn) [Example 260], the inhibition at 1 µM at ABHD6 (mouse) and at FAAH (mouse) was below 25% throughout.

As for `O=C(O)c1cc(CN2CCCC23CCN(C(=O)OC(C(F)(F)F)C(F)(F)F)CC3)ccc1Cl` [Example 266], the inhibition at 1 µM on ABHD6 (mouse) and at FAAH (mouse) was below 25% each time.
